In PubChem BioAssay AID624129 (Sanford-Burnham Center for Chemical Genomics, 2012):
Active and inactive are the calls of the source. How the calls were made is not given here.

Assays:
Assay in all cases: CXCR6 receptor antagonists, dose response, cell-based, beta-arrestin, DiscoveRx, APJ panel, uHTS hits (AID 624129)
[1] = biological target: Beta-galactosidase (Escherichia coli) (UniProt Q8VNN2); conditions: CXCR6 beta-arrestin (DiscoveRx) antagonist cell assay, b-galactosidase
[2] = biological target: C-C chemokine receptor type 6 (Homo sapiens) (UniProt P51684); conditions: CXCR6 beta-arrestin (DiscoveRx) antagonist cell assay
[3] = biological target: C-X-C chemokine receptor type 6 (Homo sapiens) (UniProt O00574); conditions: CXCR6 beta-arrestin (DiscoveRx) antagonist cell assay
[4] = biological target: Apelin receptor (Homo sapiens) (UniProt P35414); conditions: CXCR6 beta-arrestin (DiscoveRx) antagonist cell assay, APJ
[5] = dose range 1, mean IC50 across replicates
[6] = CCR6, dose range 1, mean IC50 across replicates
[7] = CXCR6, dose range 1, mean IC50 across replicates
[8] = CXCR6, run 1, dose range 2, at 80 µM (top of the series)

Sequence of Beta-galactosidase (Escherichia coli) (Q8VNN2 whole entry, looked up): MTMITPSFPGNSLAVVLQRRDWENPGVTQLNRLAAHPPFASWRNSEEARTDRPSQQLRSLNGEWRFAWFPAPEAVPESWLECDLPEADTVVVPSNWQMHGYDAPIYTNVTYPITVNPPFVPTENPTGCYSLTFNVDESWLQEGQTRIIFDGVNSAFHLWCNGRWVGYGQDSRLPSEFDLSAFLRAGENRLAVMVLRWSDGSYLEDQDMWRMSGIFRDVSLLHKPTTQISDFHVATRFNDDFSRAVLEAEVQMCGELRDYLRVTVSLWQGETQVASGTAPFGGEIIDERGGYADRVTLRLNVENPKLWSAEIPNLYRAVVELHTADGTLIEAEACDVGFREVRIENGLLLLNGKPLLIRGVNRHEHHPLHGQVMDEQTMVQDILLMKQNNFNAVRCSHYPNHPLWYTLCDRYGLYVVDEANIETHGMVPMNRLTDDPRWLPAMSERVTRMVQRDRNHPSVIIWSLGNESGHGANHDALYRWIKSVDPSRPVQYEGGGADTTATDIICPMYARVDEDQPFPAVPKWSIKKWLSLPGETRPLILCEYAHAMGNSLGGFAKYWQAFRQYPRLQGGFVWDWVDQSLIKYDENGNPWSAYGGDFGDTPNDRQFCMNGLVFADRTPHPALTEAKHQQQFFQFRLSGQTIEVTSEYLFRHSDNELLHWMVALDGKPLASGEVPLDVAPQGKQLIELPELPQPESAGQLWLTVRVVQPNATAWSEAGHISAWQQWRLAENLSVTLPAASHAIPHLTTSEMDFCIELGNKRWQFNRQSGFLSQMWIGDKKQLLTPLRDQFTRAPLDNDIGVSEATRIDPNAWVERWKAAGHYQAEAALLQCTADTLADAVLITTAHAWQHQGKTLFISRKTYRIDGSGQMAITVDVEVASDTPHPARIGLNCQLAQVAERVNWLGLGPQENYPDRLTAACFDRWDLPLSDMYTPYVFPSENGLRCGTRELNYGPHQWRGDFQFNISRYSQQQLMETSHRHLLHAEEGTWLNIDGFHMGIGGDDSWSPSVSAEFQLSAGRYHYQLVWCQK
Sequence of C-X-C chemokine receptor type 6 (Homo sapiens) (O00574 whole entry, looked up): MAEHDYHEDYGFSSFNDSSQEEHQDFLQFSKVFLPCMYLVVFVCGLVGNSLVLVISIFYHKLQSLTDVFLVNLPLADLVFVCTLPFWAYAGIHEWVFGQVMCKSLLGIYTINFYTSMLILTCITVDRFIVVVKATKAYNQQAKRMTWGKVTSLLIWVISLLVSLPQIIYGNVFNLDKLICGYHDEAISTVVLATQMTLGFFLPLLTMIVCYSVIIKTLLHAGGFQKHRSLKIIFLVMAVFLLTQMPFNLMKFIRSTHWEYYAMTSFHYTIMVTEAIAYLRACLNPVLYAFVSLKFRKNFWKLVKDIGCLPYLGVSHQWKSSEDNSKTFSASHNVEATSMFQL

IC50 ([1]; dose range 1)	IC50 [1, 5] [µM]	IC50 ([2]; CCR6, dose range 1) [µM]	IC50 [2, 6] [µM]	IC50 ([2]; CCR6, run 2, dose range 1) [µM]	IC50 ([3]; CXCR6, dose range 1)	IC50 [3, 7] [µM]	inhibition ([3]; CXCR6, run 1, dose range 2, at 10 µM (top of the series)) [%]	IC50 ([3]; CXCR6, run 2, dose range 1) [µM]	IC50 ([4]; dose range 1) [µM]	IC50 [4, 5] [µM]	IC50 ([4]; run 2, dose range 1) [µM]	IC50 ([4]; run 3, dose range 1) [µM]	inhibition [3, 8] [%]	IC50 ([3]; CXCR6, run 1, dose range 2) [µM]	IC50 ([3]; CXCR6, run 2, dose range 2) [µM]	SMILES
> 80 µM (inactive)	> 80	0.489	0.686	0.883	0.963 µM	0.897	99.9	0.832	0.686	0.684	0.685	0.68				COc1ccc(NC(=O)/C(Cl)=C(/Cl)S(=O)(=O)Cc2ccc(C)cc2)cn1
> 80 µM (inactive)	> 80	2.87	4.41	5.95	4.35 µM	3.68		3.7	3.53	3.82	3.74	4.18		3.45	3.2	O=c1cc(CSc2ccc(Cl)cc2)nc(-c2ccccn2)[nH]1
> 80 µM (inactive)	> 80	7.09	9.8	12.5	inactive	24.8		53		> 80	> 80	> 80		6.21	6.06	Cc1cc(Cl)n2c(nc3cc(F)c(F)cc32)c1C#N
> 80 µM (inactive)	> 80	7.32	8.78	10.2	inactive	13.5		12.7	11.7	19.5	35	11.8	92.1			CCOc1ccc2nc(NC(=O)c3ccccn3)sc2c1

Second part, the compound before the results:

SMILES	IC50 ([1]; dose range 1)	IC50 [1, 5] [µM]	IC50 ([2]; CCR6, dose range 1) [µM]	IC50 [2, 6] [µM]	IC50 ([2]; CCR6, run 2, dose range 1) [µM]	IC50 ([3]; CXCR6, dose range 1)	IC50 [3, 7] [µM]	inhibition ([3]; CXCR6, run 1, dose range 2, at 10 µM (top of the series)) [%]	IC50 ([3]; CXCR6, run 2, dose range 1) [µM]	IC50 ([4]; dose range 1) [µM]	IC50 [4, 5] [µM]	IC50 ([4]; run 2, dose range 1) [µM]	IC50 ([4]; run 3, dose range 1) [µM]	inhibition [3, 8] [%]	IC50 ([3]; CXCR6, run 1, dose range 2) [µM]	IC50 ([3]; CXCR6, run 2, dose range 2) [µM]
O=C(Nc1cccc(C(F)(F)F)c1)Oc1ccc(Cl)c2cccnc12	> 80 µM (inactive)	> 80	0.491	0.54	0.589	0.874 µM	0.702		0.53	0.347	0.41	> 80	0.463	53.2		
O=S(=O)(Nc1cccc2cccnc12)c1ccccc1	> 80 µM (inactive)	> 80	7.66	9.73	11.8	inactive	14.5		14.5	6.46	9.91	10.7	12.5	116		
Cn1nc([N+](=O)[O-])nc1Sc1cccc2cccnc12	> 80 µM (inactive)	> 80	12.1	13.7	15.2	inactive	12.5		14.2	11	11.9	11.4	13.1		11.3	9.55
NC(=S)N/N=C/c1ncc(C(F)(F)F)cc1Cl	> 80 µM (inactive)	> 80	6	6.7	7.41	7.01 µM	5.44		6.86	6.82	7.73	8.7	7.68		3.67	4.23
CCOC(=O)c1c(SCCN2CCCCC2)n(-c2ccccc2)c(=S)n(-c2ccccc2)c1=O	> 80 µM (inactive)	> 80	4.56	5.9	7.23	11.1 µM	8.58		6.03	5.99	6.77	7.04	7.28	130		
N#CC(C#N)=C1C=CC=CN1/C(=C\c1ccccc1Cl)C(=O)c1ccccc1	> 80 µM (inactive)	> 80	7.75	6.75	5.76	7.69 µM	9.06		7.88	14.4	14.5	11.7	17.5		9.82	10.8
